The source of these data is PMC8574161 (Journal of chemical information and modeling, 2021).

“And” between values parts separate entries of the source, which are not always exact repeats. Equal entries are not always repeated. Structures can show the parent of a compound that is named as a salt. Where two headings read alike, the source gives them in different places. Bounds are passed on as bounds.

For data set [1], the system named is SARS-CoV-2. The note with it: Vero cells; cited from earlier work.
The subject of data set [2] is SARS-CoV-2. The note with it: Calu-3 cells; cited from earlier work.
Data set [3] concerns SARS-CoV-2. To be noted: compared with CC50.
For data set [4], the system named is SARS-CoV-2. Put plainly: microbe, parasite or virus in culture.
Data set [5] in a line: in vitro. To be noted: human.
For data set [6], the system named is SARS-CoV-2. Put plainly: Vero 76 reduction of virus-induced cytopathic effect. The class given is cell-based. To be noted: Severe acute respiratory syndrome coronavirus 2, Vero 76, Vero 76. In general terms: Cytopathic effects are the visible damage that an infection or toxin causes in cultured cells.
Data set [7] can be described thus: Calu3 toxicity. To be noted: human, Calu3 cells infected with SARS-CoV-2. The class given is cell-based.
Data set [8] concerns SARS-CoV-2. The note with it: Vero E6 cells; cited from earlier work.
Data set [9] concerns the target SARS-CoV-2 Spike RBD protein (Severe acute respiratory syndrome coronavirus 2, UniProt P0DTC2). Put plainly: Microscale thermophoresis binding to Spike RBD. To be noted: MST, 5 nM labeled Spike RBD, 23°C, quadruplicate. Background: MST reads how a fluorescent partner responds to local heating, with and without ligand.
The subject of data set [10] is SARS-CoV-2 (isolate USA WA1/2020). Kind of data set: microbe, parasite or virus in culture. In kind it is cell-based. To be noted: Severe acute respiratory syndrome coronavirus 2, Calu-3, 48 h.
A short description of data set [11]: Vero 76 cytotoxicity in uninfected toxicity cultures. The note with it: African green monkey, CC50, Vero 76.
Where [12] appears, read: Severe acute respiratory syndrome coronavirus 2, Caco-2, 72 h.
Where [13] appears, read: Neutral Red (Cytopathic effect/Toxicity).
Where [14] appears, read: Visual (Cytopathic effect/Toxicity).

For the compound `Cc1cn(-c2cc(NC(=O)c3ccc(C)c(Nc4nccc(-c5cccnc5)n4)c3)cc(C(F)(F)F)c2)cn1` [Nilotinib], the potency result in [1] is recorded as “sub-micromolar”.

Broadly, the IC50 is the midpoint of a concentration-inhibition curve. Turning to `C[C@H]1[C@H](OC(=O)CCC(=O)O)O[C@@H]2O[C@@]3(C)CC[C@H]4[C@H](C)CC[C@@H]1[C@@]24OO3` [Artesunate], the IC50 in [2] was 1760 nM.

The term EC90 denotes the concentration at which the effect reaches the 90% level. High values mean a need for much substance, low ones an effect from little substance. For the compound `CCCC1O[C@@H]2C[C@H]3[C@@H]4CCC5=CC(=O)C=C[C@]5(C)[C@H]4[C@@H](O)C[C@]3(C)[C@]2(C(=O)CO)O1` (some centres unmarked) [Budesonide], the “activity against SARS-CoV-2 in Caco-2 cells (in words)” value in data set [3] is “no activity”. The EC90 in data set [4] (setting [12]) was above 10 µM. For the same compound, the CC50 at 3 days in [5] is 10 µM.

On to `COc1cc2c(cc1OC)C1CC(=O)C(CC(C)C)CN1CC2` (centres unmarked) [Tetrabenazine], for which the “activity against SARS-CoV-2 in Caco-2 cells (in words)” value in data set [3] was “inactive”. This compound also had an EC90 in data set [4] (Severe acute respiratory syndrome coronavirus 2, Caco-2) above 100 µM. This compound displayed a CC50 at 3 days in [5] above 100 µM.

In general, EC50 refers to the concentration giving half of the maximal effect. A word on the Kd: it is the free concentration of one partner at which half of the binding sites on the other are occupied at equilibrium, for simple one-to-one binding. Low readings indicate a tighter complex, high ones a looser complex. For the compound `CCCCN(CCCC)CC(O)c1cc(Cl)cc2c1-c1ccc(Cl)cc1/C2=C/c1ccc(Cl)cc1` (centres unmarked) [Lumefantrine], the EC50 in [6] (setting [13]) was 54 µM; in data set [6] (setting [14]) it was above 60 µM; in [8], 23.2 µM. For the same compound, in data set [7], the CC50 at 48 h was above 20 µM. Further, in [4] (setting [12]), it took 10 µM to reach the 90% level (EC90). Also, the Kd in data set [9] is 259 nM and ~250 nM. This compound also came in with a CC50 at 3 days in data set [5] of 10 µM. This compound also had an IC50 in [10] above 20 µM. Also, the CC50 in data set [11] (setting [13]) is 177 µM; in data set [11] (setting [14]) it was above 60 µM.

The compound `C=C[C@]1(C)C[C@@H](OC(=O)CSCCN(CC)CC)[C@]2(C)[C@H](C)CC[C@]3(CCC(=O)[C@H]32)[C@@H](C)[C@@H]1O` [Tiamulin fumarate] displayed an EC90 in [4] (setting [12]) of 65 µM. The same compound displayed a CC50 at 3 days in [5] above 100 µM.
